The values below are quoted from earlier work in patent publication US20260240855A1 (priority 2023, published 2026).

This data set relates to extracellular signal-regulated kinase (ERK). The settings on record: preclinical studies.

Turning to `C=CC(=O)N1CCN(c2nc(=O)n(-c3c(C)ccnc3C(C)C)c3nc(-c4c(O)cccc4F)c(F)cc23)[C@@H](C)C1` (atropisomer, axis not shown; (M)) [Sotorasib, 6-fluoro-7-(2-fluoro-6-hydroxyphenyl)-(1M)-1-[4-methyl-2-(propan-2-yl)pyridin-3-yl]-4-[(2S)-2-methyl-4-(prop-2-enoyl)piperazin-1-yl]pyrido[2,3-d]pyrimidin-2(1H)-one], the “phosphorylation of extracellular signal-regulated kinase (ERK)” value is given as “inhibited nearly all detectable phosphorylation”.
